Assay results published in patent US9845292B2 (Max-Planck-Gesellschaft zur Förderung der Wissenschaften …, priority 2013, dated 2017).
Where two headings read alike, the source gives them in different places.

Key:
FKBP52 = target: T1, FKBP52 (Homo sapiens, UniProt Q02790); test: Fluorescence polarization binding assay, FK1-domain of FKBP52WT with tracer F2 (selectivity FKBP51 vs. FKBP52); conditions: selectivity factor over FKBP52
T1 construct: Purified FK1-domains of FKBP51WT (4.5 nM) with F4 (3 nM), FKBP52WT (400 nM) with F2 (20 nM); implied by Ni-NTA purification) (N); made in house; host or cells: E. coli BL21(DE3)pLysS
T1 sequence (Q02790 50-138 limits assumed): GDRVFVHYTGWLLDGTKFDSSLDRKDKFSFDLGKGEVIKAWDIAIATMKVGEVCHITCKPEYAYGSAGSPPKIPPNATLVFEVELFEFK
Method: (§1) The target protein was also diluted in this assay buffer at double the highest concentration required for the final sample. This protein stock was used for a 1:1 serial dilution.
(§2) The inventive compound was dissolved in DMSO to reach a 100-times concentrated stock solution. This was used for a 1:1 serial dilution in DMSO.
(§3) For FKBP12, −51, and −52 the binding assays were performed in duplicates in the plate format.
(§4) The competition curves were analyzed by using SigmaPlot9. Data were fitted to a four parameter logistic curve to deduce the IC50 values. […] A=(Amax−Amin)/[L]t×(([L]t×((2×((Klig+Kcomp+[L]t+[I]t−[R]t)^2−3×(Kcomp×([L]t−[R]t)+Klig×([I]t−[R]t)+Klig×Kcomp))^0.5×COS(ARCCOS((−2×(Klig+Kcomp+[L]t+[I]t−[R]t)^3+9×(Klig+Kcomp+[L]t+[I]t−[R]t)×(Kcomp×([L]t−[R]t)+Klig×([I]t−[R]t)+Klig×Kcomp)−27×(−1×Klig×Kcomp×[R]t))/(2×((((Klig+Kcomp+[L]t+[I]t−[R]t)^2−3×(Kcomp×([L]t−[R]t)+Klig×([I]t−[R]t)+Klig×Kcomp))^3)^0.5)))/3))−(Klig+Kcomp+[L]t+[I]t−[R]t)))/((3×Klig)+((2×((Klig+Kcomp+[L]t+[I]t−[R]t)^2−3×(Kcomp×([L]t−[R]t)+Klig×([I]t−[R]t)+Klig×Kcomp))^0.5×COS(ARCCOS((−2×(Klig+Kcomp+[L]t+[I]t−[R]t)^3+9×(Klig+Kcomp+[L]t+[I]t−[R]t)×(Kcomp×([L]t−[R]t)+Klig×([I]t−[R]t)+Klig×Kcomp)−27×(−1×Klig×Kcomp×[R]t))/(2×((((Klig+Kcomp+[L]t+[I]t−[R]t)^2−3×(Kcomp×([L]t−[R]t)+Klig×([I]t−[R]t)+Klig×Kcomp))^3)^0.5)))/3))−(Klig+Kcomp+[L]t+[I]t−[R]t))))+Amin
(§5) In this equation Klig and Kcomp stand for the Kd values of the used tracer or competing inhibitor, [I]t is referring to the total concentration of the titrated inhibitor.
The Selectivity of the Compounds was Classified by Ki(FKBP51)/Ki(FKBP52)
(§6) Inhibition constants were measured in a fluorescence polarization binding assay by titrating the compounds.

FKBP51 = target: T2, FKBP51 (Homo sapiens, UniProt Q13451); test: Fluorescence polarization binding assay, FK1-domain of FKBP51WT with tracer F4; set-up: Purified FK1-domains of FKBP51WT (4.5 nM) with F4 (3 nM), FKBP52WT (400 nM) with F2 (20 nM); made in house; host or cells: E. coli BL21(DE3)pLysS; conditions: read-out: Affinity(Ki) for FKBP51
T2 sequence (Q13451 42-130 limits assumed): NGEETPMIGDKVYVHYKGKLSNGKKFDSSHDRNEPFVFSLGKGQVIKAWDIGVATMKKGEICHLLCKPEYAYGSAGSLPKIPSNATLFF
Method: as §1, §2, §3, §4, §5, §6

[1] = FKBP52WT (400 nM) with F2 (20 nM), A series
[2] = FK1-domain of FKBP51WT (4.5 nM) with F4 (3 nM), A series

Structure (SMILES) | Ki(FKBP51)/Ki(FKBP52) (FKBP52; compounds B01-C25) | Ki (FKBP51; compounds B01-C25) [µM] | Ki(FKBP51)/Ki(FKBP52) (FKBP52; [1]) | Ki (FKBP51; [2]) [µM]
COc1cc([C@@H](C(=O)N2CCCC[C@H]2C(=O)NC2(C(N)=O)CCCC2)C2CCCCC2)cc(OC)c1OC [Compound B28, (S)-N-(1-carbamoylcyclopentyl)-1-((S)-2-cyclohexyl-2-(3,4,5-trimethoxyphenyl)acetyl)piperidine-2-carboxamide] | ++++ (>5000 ++++) | 0.1 to 1 |  | 
COc1cc([C@@H](C(=O)N2CCCC[C@H]2C(=O)N[C@H](C)C(N)=O)C2CCCCC2)cc(OC)c1OC [Compound B02, (S)-N-((R)-1-amino-1-oxopropan-2-yl)-1-((S)-2-cyclohexyl-2-(3,4,5-trimethoxyphenyl)acetyl)piperidine-2-carboxamide] | ++ (>50 ++) | 1 to 10 |  | 
COc1cc([C@@H](C(=O)N2CCCC[C@H]2C(=O)N[C@@H](CCc2ccccc2)C(N)=O)C2CCCCC2)cc(OC)c1OC [Compound B08, (S)-N-((S)-1-amino-1-oxo-4-phenylbutan-2-yl)-1-((S)-2-cyclohexyl-2-(3,4,5-trimethoxyphenyl)acetyl)piperidine-2-carboxamide] | ++ (>50 ++) | 1 to 10 |  | 
CC[C@@H](C)[C@@H](NC(=O)[C@@H]1CCCCN1C(=O)[C@H](c1cc(OC)c(OC)c(OC)c1)C1CCCCC1)C(N)=O [Compound B15, (S)-N-((2R,3R)-1-amino-3-methyl-1-oxopentan-2-yl)-1-((S)-2-cyclohexyl-2-(3,4,5-trimethoxyphenyl)acetyl)piperidine-2-carboxamide] | ++ (>50 ++) | 1 to 10 |  | 
COc1ccc(CC[C@@H](OC(=O)[C@@H]2CCCCN2C(=O)[C@@H](Cc2ccccc2)c2cc(OC)c(OC)c(OC)c2)c2cccc(OCC(=O)O)c2)cc1OC [Compound A10, 2-(3-((R)-3-(3,4-dimethoxyphenyl)-1-(((S)-1-((S)-3-phenyl-2-(3,4,5-trimethoxyphenyl)propanoyl)piperidine-2-carbonyl)oxy)propyl)phenoxy)acetic acid] |  |  | + (>5 +) | 10 to 50
COc1ccc(CCC(OC(=O)C2CCCCN2C(=O)[C@H](c2cc(OC)c(OC)c(OC)c2)[C@@H]2C=CCCC2)c2cccc(OCCN3CCOCC3)c2)cc1OC (stereo in doubt) [Compound A12, (S)-(R)-3-(3,4-Dimethoxyphenyl)-1-(3-(2-morpholinoethoxy)phenyl)propyl-1-((S)-2-((S)-cyclohex-2-en-1-yl)-2-(3,4,5-trimethoxyphenyl)acetyl)piperidine-2-carboxylate] |  |  | +++ (>500 +++) | < 0.1
COc1cc([C@@H](C(=O)N2CCCC[C@H]2C(=O)N[C@@H](CCC2CCCCC2)C(N)=O)C2CCCCC2)cc(OC)c1OC [Compound B09, (S)-N-((S)-1-amino-4-cyclohexyl-1-oxobutan-2-yl)-1-((S)-2-cyclohexyl-2-(3,4,5-trimethoxyphenyl)acetyl)piperidine-2-carboxamide] | ++ (>50 ++) | 10 to 50 |  | 
C=CC[C@H](C(=O)N1CCCC1C(=O)OC(CCc1ccc(OC)c(OC)c1)c1cccc(OCCN2CCOCC2)c1)c1cc(OC)c(OC)c(OC)c1 (stereo in doubt) [Reference A33, (S)-(R)-3-(3,4-Dimethoxyphenyl)-1-(3-(2-morpholinoethoxy)phenyl)propyl-1-((S)-2-(3,4,5-trimethoxyphenyl)pent-4-enoyl)pyrrolidine-2-carboxylate] |  |  | not selective (<5 not selective) | 
COc1cc([C@@H](C(=O)N2CCCC[C@H]2C(=O)NC(C)(C)C(N)=O)C2CCCCC2)cc(OC)c1OC [Compound B11, (S)-N-(1-amino-2-methyl-1-oxopropan-2-yl)-1-((S)-2-cyclohexyl-2-(3,4,5-trimethoxyphenyl)acetyl)piperidine-2-carboxamide] | +++ (>500 +++) | 1 to 10 |  | 
COc1cc([C@@H](C(=O)N2CCCC[C@H]2C(=O)N[C@H](CCC(N)=O)C(N)=O)C2CCCCC2)cc(OC)c1OC [Compound B24, (R)-2-((S)-1-((S)-2-cyclohexyl-2-(3,4,5-trimethoxyphenyl)acetyl)piperidine-2-carboxamido)pentanediamide] | ++ (>50 ++) | 1 to 10 |  | 
COc1cc([C@@H](C(=O)N2CCCC[C@H]2C(=O)NCC(N)=O)C2CCCCC2)cc(OC)c1OC [Compound B10, (S)-N-(2-amino-2-oxoethyl)-1-((S)-2-cyclohexyl-2-(3,4,5-trimethoxyphenyl)acetyl)piperidine-2-carboxamide] | + (>5 +) | 10 to 50 |  | 
COc1cc([C@@H](C(=O)N2CCCC[C@H]2C(=O)NCCC(N)=O)C2CCCCC2)cc(OC)c1OC [Compound B29, (S)-N-(3-amino-3-oxopropyl)-1-((S)-2-cyclohexyl-2-(3,4,5-trimethoxyphenyl)acetyl)piperidine-2-carboxamide] | ++ (>50 ++) | 1 to 10 |  | 
C=CC[C@H](C(=O)N1CCSC[C@H]1C(=O)O[C@H](CCc1ccc(OC)c(OC)c1)c1cccc(OCCN2CCOCC2)c1)c1cc(OC)c(OC)c(OC)c1 [Reference A34, (R)-(R)-3-(3,4-Dimethoxyphenyl)-1-(3-(2-morpholinoethoxy)phenyl)propyl-4-((S)-2-(3,4,5-trimethoxyphenyl)pent-4-enoyl)thiomorpholine-3-carboxylate] |  |  | not selective (<5 not selective) | 

Other lines, results leading:

Ki(FKBP51)/Ki(FKBP52) (FKBP52; compounds B01-C25) | Ki (FKBP51; compounds B01-C25) [µM] | Ki(FKBP51)/Ki(FKBP52) (FKBP52; [1]) | Ki (FKBP51; [2]) [µM] | Structure (SMILES)
++ (>50 ++) | 10 to 50 |  |  | COc1cc([C@@H](C(=O)N2CCCC[C@H]2C(=O)OC2CCCCCC2)C2CCCCC2)cc(OC)c1OC [Compound C16, (S)-cycloheptyl-1-((S)-2-cyclohexyl-2-(3,4,5-trimethoxyphenyl)acetyl)piperidine-2-carboxylate]
+++ (>500 +++) | 1 to 10 |  |  | CCCOC(=O)[C@@H]1CCCCN1C(=O)[C@H](c1cc(OC)c(OC)c(OC)c1)C1CCCCC1 [Compound C03, (S)-propyl 1-((S)-2-cyclohexyl-2-(3,4,5-trimethoxyphenyl)acetyl)piperidine-2-carboxylate]
+++ (>500 +++) | 1 to 10 |  |  | COc1cc([C@@H](C(=O)N2CCCC[C@H]2C(=O)OC2CC=CC2)C2CCCCC2)cc(OC)c1OC [Compound C14, (S)-cyclopent-3-en-1-yl-1-((S)-2-cyclohexyl-2-(3,4,5-trimethoxyphenyl)acetyl) piperidine-2-carboxylate]
++ (>50 ++) | 1 to 10 |  |  | COc1cc([C@@H](C(=O)N2CCCC[C@H]2C(=O)OCCCOCc2ccccc2)C2CCCCC2)cc(OC)c1OC [Compound C21, (S)-3-(benzyloxy)propyl-1-((S)-2-cyclohexyl-2-(3,4,5-trimethoxyphenyl)acetyl) piperidine-2-carboxylate]
++ (>50 ++) | 1 to 10 |  |  | COC(=O)[C@@H]1CCCCN1C(=O)[C@H](c1cc(OC)c(OC)c(OC)c1)C1CCCCC1 [Compound C01, (S)-methyl 1-((S)-2-cyclohexyl-2-(3,4,5-trimethoxyphenyl)acetyl)piperidine-2-carboxylate]
+++ (>500 +++) | 1 to 10 |  |  | COc1cc([C@@H](C(=O)N2CCCC[C@H]2C(=O)OC(C)(C)C)C2CCCCC2)cc(OC)c1OC [Compound C10, (S)-tert-butyl-1-((S)-2-cyclohexyl-2-(3,4,5-trimethoxyphenyl)acetyl)piperidine-2-carboxylate]
++ (>50 ++) | 1 to 10 |  |  | COc1cc([C@@H](C(=O)N2CCCC[C@H]2C(=O)OC2C=CCCC2)C2CCCCC2)cc(OC)c1OC (mixture of isomers) [Compound C15, (2S)-cyclohex-2-en-1-yl-1-((S)-2-cyclohexyl-2-(3,4,5-trimethoxyphenyl)acetyl) piperidine-2-carboxylate]
